Measurements: US9695155B2, “Herbicidal substituted pyrimidinyloxy benzene compounds” (E. I. DU PONT DE NEMOURS AND COMPANY, priority 2013, dated 2017)

Legend:
rice = assay: Test B flooded paddy test; type: in vivo, Oryza sativa; conditions: Flood, 250 g ai/ha; 0 to 100 scale where 0 is no effect and 100 is complete control
In short: (§1)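 2-leaf stage plants; pots flooded to 3 cm, compound added to paddy water, depth maintained. Greenhouse 13–15 d. Visual rating vs untreated controls, 0 (no effect) to 100 (complete control); dash = no result.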

barnyardgrass [1] = assay: Test C postemergence; type: in vivo, Echinochloa crus-galli; conditions: for Barnyardgrass plant response rating: 31 g ai/ha, 13 to 15 days; for Barnyardgrass plant response rating / Plant response rating, Barnyardgrass: scale 0 to 100 (0 no effect, 100 complete control)
In short: (§2)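 Visual injury score versus untreated controls, 0 = no effect, 100 = complete control, taken 13 to 15 days after treatment in the greenhouse. Pre-emergence pots held loam/sand; post-emergence plants grew in sphagnum peat/vermiculite mix and were sprayed at the 1- to 4-leaf stage.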

ragweed = assay: Test C postemergence; type: in vivo, Ambrosia elatior; conditions: for Plant response rating (0 to 100), Ragweed: 16 g ai/ha, 0 is no effect, 100 is complete control; for Ragweed plant response rating: 31 g ai/ha, 13 to 15 days; for Ragweed plant response rating / Plant response rating, Ragweed: scale 0 to 100 (0 no effect, 100 complete control)
In short: as §2

blackgrass = assay: Test C postemergence; type: in vivo, Alopecurus myosuroides; conditions: for Plant response rating (0 to 100), Blackgrass: 16 g ai/ha, 0 is no effect, 100 is complete control; for Blackgrass plant response rating: 31 g ai/ha, 13 to 15 days; for Blackgrass plant response rating / Plant response rating, Blackgrass: scale 0 to 100 (0 no effect, 100 complete control)
In short: as §2

Italian ryegrass = assay: Test C postemergence; type: in vivo, Lolium multiflorum; conditions: for Plant response rating (0 to 100), Ryegrass, Italian: 16 g ai/ha, 0 is no effect, 100 is complete control; for Ryegrass, Italian plant response rating: 31 g ai/ha, 13 to 15 days; for Ryegrass, Italian plant response rating / Plant response rating, Ryegrass, Italian: scale 0 to 100 (0 no effect, 100 complete control)
In short: as §2

yellow nutsedge = assay: Test C postemergence; type: in vivo, Cyperus esculentus; conditions: for Plant response rating (0 to 100), Nutsedge, Yellow: 16 g ai/ha, 0 is no effect, 100 is complete control; for Nutsedge, Yellow plant response rating: 31 g ai/ha, 13 to 15 days; for Nutsedge, Yellow plant response rating / Plant response rating, Nutsedge, Yellow: scale 0 to 100 (0 no effect, 100 complete control)
In short: as §2

pigweed = assay: Test A postemergence; type: in vivo, Amaranthus retroflexus; conditions: 0 to 100 scale where 0 is no effect and 100 is complete control; for Pigweed plant response rating: 125 g ai/ha; for Plant response rating, Pigweed: 500 g ai/ha
In short: (§3)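 Injury scores run from 0, no effect, to 100, complete control, judged by eye against untreated plants roughly 10 days after treatment. Chemicals carried a surfactant in a non-phytotoxic solvent and went onto loam–sand soil preemergence or onto one- to two-leaf seedlings postemergence.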

barnyardgrass [2] = assay: Test A preemergence; type: in vivo, Echinochloa crus-galli; conditions: for Barnyardgrass plant response rating (0 to 100 scale, 0 is no effect, 100 is complete control): 125 g ai/ha; for Barnyardgrass plant response rating: 500 g ai/ha, 0 to 100 scale where 0 is no effect and 100 is complete control
In short: as §3

large (Lg) crabgrass [3] = assay: Test C postemergence; type: in vivo, Digitaria sanguinalis; conditions: for Plant response rating (0 to 100), Crabgrass, Large: 16 g ai/ha, 0 is no effect, 100 is complete control; for Crabgrass, Large plant response rating: 31 g ai/ha, 13 to 15 days; for Crabgrass, Large plant response rating / Plant response rating, Crabgrass, Large: scale 0 to 100 (0 no effect, 100 complete control)
In short: as §2

sedge, umbrella = assay: Test B flooded paddy test; type: in vivo, Cyperus difformis; conditions: Flood, 250 g ai/ha; 0 to 100 scale where 0 is no effect and 100 is complete control
In short: as §1

lambsquarters = assay: Test C postemergence; type: in vivo, Chenopodium album; conditions: for Plant response rating (0 to 100), Lambsquarters: 16 g ai/ha, 0 is no effect, 100 is complete control; for Lambsquarters plant response rating: 31 g ai/ha, 13 to 15 days; for Lambsquarters plant response rating / Plant response rating, Lambsquarters: scale 0 to 100 (0 no effect, 100 complete control)
In short: as §2

galium = assay: Test C postemergence; type: in vivo, Galium aparine; conditions: for Plant response rating (0 to 100), Galium: 16 g ai/ha, 0 is no effect, 100 is complete control; for Galium plant response rating: 31 g ai/ha, 13 to 15 days; for Galium plant response rating / Plant response rating, Galium: scale 0 to 100 (0 no effect, 100 complete control)
In short: as §2

large (Lg) crabgrass [4] = assay: Test A postemergence; type: in vivo, Digitaria sanguinalis; conditions: 0 to 100 scale where 0 is no effect and 100 is complete control; for Crabgrass, Large plant response rating: 125 g ai/ha; for Plant response rating, Crabgrass, Large: 500 g ai/ha
In short: as §3

wheat = assay: Test A preemergence; type: in vivo, Triticum aestivum; conditions: for Wheat plant response rating (0 to 100 scale): 125 g ai/ha; for Wheat plant response rating: 500 g ai/ha, 0 to 100 scale where 0 is no effect and 100 is complete control
In short: as §3

soybean = assay: Test C postemergence; type: in vivo, Glycine max; conditions: for Plant response rating (0 to 100), Soybean: 16 g ai/ha, 0 is no effect, 100 is complete control; for Soybean plant response rating: 31 g ai/ha, 13 to 15 days; for Soybean plant response rating / Plant response rating, Soybean: scale 0 to 100 (0 no effect, 100 complete control)
In short: as §2

[5] = 125 g ai/ha, postemergence, visual rating

## Cc1cnc(Oc2cccc(C#N)c2-n2cc(C(F)(F)F)cn2)nc1 [Compound 180]
rice
  Plant response rating, Rice: 40
Barnyardgrass [1]; postemergence, visual rating
  Barnyardgrass plant response rating: 5
Barnyardgrass [1]; [5]
  Plant response rating, Barnyardgrass: 20
Barnyardgrass [1]; Postemergence, 62 g ai/ha
  Plant response rating, Barnyardgrass: 5
ragweed; postemergence
  Plant response rating (0 to 100), Ragweed: 35
ragweed; postemergence, visual rating
  Ragweed plant response rating: 65
ragweed; [5]
  Plant response rating, Ragweed: 70
ragweed; Postemergence, 62 g ai/ha
  Plant response rating, Ragweed: 80
blackgrass; postemergence
  Plant response rating (0 to 100), Blackgrass: 0
blackgrass; postemergence, visual rating
  Blackgrass plant response rating: 10
blackgrass; [5]
  Plant response rating, Blackgrass: 30
blackgrass; Postemergence, 62 g ai/ha
  Plant response rating, Blackgrass: 5
Italian ryegrass; postemergence
  Plant response rating (0 to 100), Ryegrass, Italian: 0
Italian ryegrass; postemergence, visual rating
  Ryegrass, Italian plant response rating: 0
Italian ryegrass; [5]
  Plant response rating, Ryegrass, Italian: 10
Italian ryegrass; Postemergence, 62 g ai/ha
  Plant response rating, Ryegrass, Italian: 5
Yellow nutsedge; postemergence
  Plant response rating (0 to 100), Nutsedge, Yellow: 0
Yellow nutsedge; postemergence, visual rating
  Nutsedge, Yellow plant response rating: 0
Yellow nutsedge; [5]
  Plant response rating, Nutsedge, Yellow: 10
Yellow nutsedge; Postemergence, 62 g ai/ha
  Plant response rating, Nutsedge, Yellow: 10
pigweed
  Pigweed plant response rating: 100
  Plant response rating, Pigweed: 100
Barnyardgrass [2]
  Barnyardgrass plant response rating (0 to 100 scale, 0 is no effect, 100 is complete control): 100
  Barnyardgrass plant response rating: 100
Large (Lg) crabgrass [3]; postemergence
  Plant response rating (0 to 100), Crabgrass, Large: 5
Large (Lg) crabgrass [3]; postemergence, visual rating
  Crabgrass, Large plant response rating: 5
Large (Lg) crabgrass [3]; [5]
  Plant response rating, Crabgrass, Large: 35
Large (Lg) crabgrass [3]; Postemergence, 62 g ai/ha
  Plant response rating, Crabgrass, Large: 5
sedge, umbrella
  Plant response rating, Sedge, Umbrella: 80
lambsquarters; postemergence
  Plant response rating (0 to 100), Lambsquarters: 35
lambsquarters; postemergence, visual rating
  Lambsquarters plant response rating: 55
lambsquarters; [5]
  Plant response rating, Lambsquarters: 85
lambsquarters; Postemergence, 62 g ai/ha
  Plant response rating, Lambsquarters: 75
galium; postemergence
  Plant response rating (0 to 100), Galium: 50
galium; postemergence, visual rating
  Galium plant response rating: 55
galium; [5]
  Plant response rating, Galium: 90
galium; Postemergence, 62 g ai/ha
  Plant response rating, Galium: 60
Large (Lg) crabgrass [4]
  Crabgrass, Large plant response rating: 90
  Plant response rating, Crabgrass, Large: 90
wheat
  Wheat plant response rating (0 to 100 scale): 20
  Wheat plant response rating: 80
soybean; postemergence
  Plant response rating (0 to 100), Soybean: 85
soybean; postemergence, visual rating
  Soybean plant response rating: 85
soybean; [5]
  Plant response rating, Soybean: 95
soybean; Postemergence, 62 g ai/ha
  Plant response rating, Soybean: 98

## Clc1cnc(Oc2cccc(Cl)c2-n2cc(I)cn2)nc1 [Compound 181]
rice
  Plant response rating, Rice: 0
Barnyardgrass [1]; 16 g ai/ha, postemergence, 0 is no effect, 100 is complete control
  Plant response rating (0 to 100), Barnyardgrass: 5
Barnyardgrass [1]; postemergence, visual rating
  Barnyardgrass plant response rating: 5
Barnyardgrass [1]; [5]
  Plant response rating, Barnyardgrass: 10
Barnyardgrass [1]; Postemergence, 62 g ai/ha
  Plant response rating, Barnyardgrass: 10
ragweed; postemergence
  Plant response rating (0 to 100), Ragweed: 5
ragweed; postemergence, visual rating
  Ragweed plant response rating: 35
ragweed; [5]
  Plant response rating, Ragweed: 45
ragweed; Postemergence, 62 g ai/ha
  Plant response rating, Ragweed: 30
blackgrass; postemergence
  Plant response rating (0 to 100), Blackgrass: 5
blackgrass; postemergence, visual rating
  Blackgrass plant response rating: 5
blackgrass; [5]
  Plant response rating, Blackgrass: 25
blackgrass; Postemergence, 62 g ai/ha
  Plant response rating, Blackgrass: 15
Italian ryegrass; postemergence
  Plant response rating (0 to 100), Ryegrass, Italian: 0
Italian ryegrass; postemergence, visual rating
  Ryegrass, Italian plant response rating: 0
Italian ryegrass; [5]
  Plant response rating, Ryegrass, Italian: 10
Italian ryegrass; Postemergence, 62 g ai/ha
  Plant response rating, Ryegrass, Italian: 5
Yellow nutsedge; postemergence
  Plant response rating (0 to 100), Nutsedge, Yellow: 0
Yellow nutsedge; postemergence, visual rating
  Nutsedge, Yellow plant response rating: 0
Yellow nutsedge; Postemergence, 62 g ai/ha
  Plant response rating, Nutsedge, Yellow: 5
pigweed
  Pigweed plant response rating: 100
  Plant response rating, Pigweed: 100
Barnyardgrass [2]
  Barnyardgrass plant response rating (0 to 100 scale, 0 is no effect, 100 is complete control): 50
  Barnyardgrass plant response rating: 100
Large (Lg) crabgrass [3]; postemergence
  Plant response rating (0 to 100), Crabgrass, Large: 5
Large (Lg) crabgrass [3]; postemergence, visual rating
  Crabgrass, Large plant response rating: 5
Large (Lg) crabgrass [3]; [5]
  Plant response rating, Crabgrass, Large: 10
Large (Lg) crabgrass [3]; Postemergence, 62 g ai/ha
  Plant response rating, Crabgrass, Large: 10
sedge, umbrella
  Plant response rating, Sedge, Umbrella: 85
lambsquarters; postemergence
  Plant response rating (0 to 100), Lambsquarters: 75
lambsquarters; postemergence, visual rating
  Lambsquarters plant response rating: 100
lambsquarters; [5]
  Plant response rating, Lambsquarters: 100
lambsquarters; Postemergence, 62 g ai/ha
  Plant response rating, Lambsquarters: 100
galium; postemergence
  Plant response rating (0 to 100), Galium: 60
galium; postemergence, visual rating
  Galium plant response rating: 65
galium; [5]
  Plant response rating, Galium: 80
galium; Postemergence, 62 g ai/ha
  Plant response rating, Galium: 70
Large (Lg) crabgrass [4]
  Crabgrass, Large plant response rating: 70
  Plant response rating, Crabgrass, Large: 90
wheat
  Wheat plant response rating (0 to 100 scale): 0
  Wheat plant response rating: 10
soybean; postemergence
  Plant response rating (0 to 100), Soybean: 35
soybean; postemergence, visual rating
  Soybean plant response rating: 50
soybean; [5]
  Plant response rating, Soybean: 95
soybean; Postemergence, 62 g ai/ha
  Plant response rating, Soybean: 50
